Key:
[1] = test system: learning of a simple auto-shaped response; conditions: mice; intraperitoneal doses up to 32 mg/kg; cited from earlier work
[2] = test system: Parkinson's disease psychosis (PDP) patients; assay: Phase III six-week randomized double-blind placebo-controlled study in PDP patients; assay type: in vivo, human
Procedure: A six-week, multi-center, randomized, double-blind, placebo-controlled study was conducted in PDP patients. The purpose of the study was to evaluate the safety and efficacy of 40 mg pimavanserin compared to placebo in the treatment of PDP.
A total of 199 patients were enrolled in the study and randomized on a one-to-one basis to receive either 40 mg of pimavanserin or placebo once daily for six weeks, following a two-week screening period including brief psycho-social therapy. Patients also received stable doses of their existing anti-Parkinson's therapy throughout the study.
At the screening visit, a trained member of the site staff worked with the patient's caregiver to devise a structured plan of social interaction for the patient and caregiver to follow at home. This brief non-pharmacologic psychosocial counseling was intended to help the patient and caregiver to manage the symptoms and provide standard of care prior to the blinded investigational treatment phase. Following the screening visit, patients received two follow-up phone calls (˜3- and 7-days from the screening visit) to review the plan and evaluate progress. Only those patients who met entry criteria at baseline were randomized to receive 40 mg pimavanserin or matching placebo for the 6-week treatment period.
The maximum duration of the study for each subject was approximately 12 weeks. Pimavanserin was administered in tablet form, once daily by mouth in 40 mg doses (2 tablets of 20 mg). Placebo was administered with visibly matching tablets, using the same route and regimen. The safety of subjects was assessed by monitoring adverse events, physical examinations, vital signs, clinical laboratory tests (hematology, clinical chemistry, and urinalysis), and electrocardiograms.
Primary Clinical Endpoint: The combined score for the modified 9-item hallucinations and delusions domains of the Scale for the Assessment of Positive Symptoms (SAPS-PD).
Key Secondary Endpoint: Parts II-III of the Unified Parkinson's Disease Rating Scale (UPDRS), which measures motor function.
Other Secondary Endpoints: Changes in the Clinical Global Impression Scale (CGI) with emphasis on severity (CGI-S) and improvement (CGI-I) of psychosis.
Exploratory Endpoints: the Caregiver Burden Scale, and Scales for Outcomes in Parkinson's Disease-Sleep scale (SCOPA-Sleep).
Note: mixed model repeated measures (MMRM) method was applied in primary analysis of the intent-to-treat (ITT) population. The significance test was based on least-square mean change from baseline for each arm using a 2-sided […]=0.05.

[3] = test system: gating deficit induced by DOI; conditions: rat; doses of 1 and 3 mg/kg SC; cited from earlier work
[4] = test system: hyperactivity induced by the N-methyl-D-aspartate antagonist MK-801; conditions: mice; oral doses of 3 and 10 mg/kg; cited from earlier work
[5] = test system: DOI ((±)-2,5-dimethoxy-4-iodoamphetamine, a serotonin agonist) induced head twitches; conditions: rat; oral doses of 3 and 10 mg/kg; cited from earlier work

- change in combined UPDRS II & III scores ([2]; 40 mg once daily oral, mean change from baseline to day 43): −1.40
- motor function (UPDRS Parts II-III, non-inferiority versus placebo) ([2]; two-sided 95 percent CI of treatment difference, pre-specified margin of 5 points, day 43): did not worsen motor function
Structure (SMILES): CC(C)COc1ccc(CNC(=O)N(Cc2ccc(F)cc2)C2CCN(C)CC2)cc1 [Pimavanserin, N-(1-methylpiperidin-4-yl)-N-(4-fluorophenylmethyl)-N′-(4-(2-methylpropyloxy)phenylmethyl)carbamide]
- disruption of learning of a simple auto-shaped response [1]: failed to disrupt learning
- safety and tolerability in the trial ([2]; 40 mg once daily oral, 6 weeks): safe and well tolerated
- SAPS-PD Mean Change at Day 43 ([2]; 40 mg once daily oral, 6 weeks, n = 95, ITT, MMRM least-square mean change from baseline, P-value 0.001 vs placebo): −5.79
- serious adverse event: urinary tract infection (number of patients) ([2]; 40 mg once daily oral, 6 weeks, placebo 1): 3
- adverse event incidence: falls ([2]; 40 mg once daily oral, 6 weeks, placebo 8.5%): 10.6%
- adverse event incidence: urinary tract infection ([2]; 40 mg once daily oral, 6 weeks, placebo 11.7%): 13.5%
- serious adverse event: psychotic disorder (number of patients) ([2]; 40 mg once daily oral, 6 weeks, placebo zero): 2
- CGI-I scale (secondary efficacy measure) ([2]; 40 mg once daily oral, 6 weeks, versus placebo, p=0.001): highly significant improvement
- Caregiver Burden Scale ([2]; 40 mg once daily oral, 6 weeks, versus placebo, p=0.002): highly significant improvement
- daytime wakefulness on SCOPA-sleep scale ([2]; 40 mg once daily oral, 6 weeks, versus placebo, p=0.012): significant improvements
- nighttime sleep on SCOPA-sleep scale ([2]; 40 mg once daily oral, 6 weeks, versus placebo, p=0.045): significant improvements
- improvement in psychosis at day 43 on SAPS-PD ([2]; 40 mg once daily oral, day 43, blinded independent centralized raters): 5.79 point
- treatment difference on SAPS-PD versus placebo ([2]; 40 mg once daily oral, day 43, p=0.001): 3.06 points
- reversal of DOI induced sensory motor gating deficit [3]: potently reversed the gating deficit
- attenuation of MK-801 induced hyperactivity [4]: effective
- activity in DOI induced head twitches [5]: effective

— patent US9446037B2, “Methods for the treatment of parkinson's disease psychosis using pimavanserin” (ACADIA Pharmaceuticals Inc., priority 2012, dated 2016)
